Source: patent US7094911B2, “Biphenyl and biphenyl-analogous compounds as integrin antagonists” (Bayer Aktiengesellschaft, priority 1998, dated 2006)

Structure (SMILES) | melting point
COc1ccc(-c2ccc(NC(=O)NCC(C)C)cc2)cc1S(=O)(=O)NC(CC(=O)O)c1ccccc1 (stereo not shown) [Example 4.72] | 126 °C
CCNC(=O)Nc1cccc(-c2ccc(OC)c(S(=O)(=O)NC(CC(=O)O)c3ccccc3)c2)c1 (stereo not shown) [Example 4.73] | > 250 °C
COc1ccc(-c2ccc(NC(=O)N=c3[nH]c4ccccc4[nH]3)cc2)cc1S(=O)(=O)NC(CC(=O)O)c1ccccc1 (stereo not shown) [Example 4.74] | 209 °C
COc1ccc(-c2ccc(NC(=O)Nc3cccnc3)cc2)cc1S(=O)(=O)NC(CC(=O)O)c1ccccc1 (stereo not shown) [Example 4.75] | 188 °C
COc1ccc(-c2ccc(NC(=O)NC3CC3)cc2)cc1S(=O)(=O)NC(CC(=O)O)c1ccccc1 (stereo not shown) [Example 4.76] | 234 °C
COc1ccc(-c2cccc(NC(=O)NC3CC3)c2)cc1S(=O)(=O)NCC(=O)O [Example 4.77] | 128 °C
C[C@H](NS(=O)(=O)c1cccc(-c2cccc(NC(=O)N=c3[nH]c4ccccc4[nH]3)c2)c1)C(=O)O [Example 4.80] | 218 °C
CCCNC(=O)Nc1cccc(-c2cccc(S(=O)(=O)N[C@H](C)C(=O)O)c2)c1 [Example 4.81] | 126 °C
C[C@@H](NS(=O)(=O)c1cccc(-c2cccc(NC(=O)NCc3ccccn3)c2)c1)C(=O)O [Example 4.82] | 149 °C
C[C@@H](NS(=O)(=O)c1cccc(-c2cccc(NC(=O)N=c3[nH]c4ccccc4[nH]3)c2)c1)C(=O)O [Example 4.83] | 158 °C
C[C@@H](NS(=O)(=O)c1cccc(-c2cccc(NC(=O)Nc3ccncc3)c2)c1)C(=O)O [Example 4.84] | 169 °C
COc1ccc(-c2cccc(NC(=O)NCC(F)(F)C(F)(F)F)c2)cc1S(=O)(=O)NC(CC(=O)O)c1ccccc1 (stereo not shown) [Example 4.85] | 147 °C
COc1ccc(-c2cccc(NC(=O)N=c3[nH]cc[nH]3)c2)cc1S(=O)(=O)NC(CC(=O)O)c1ccccc1 (stereo not shown) [Example 4.86] | 209 °C
CCCCNC(=O)Nc1cccc(-c2ccc(OC)c(S(=O)(=O)N[C@H](CC(=O)O)c3ccccc3)c2)c1 [Example 4.87] | 122 °C (dec.)

Now from value to compound:

melting point | Structure (SMILES)
151 °C (dec.) | COc1ccc(-c2cccc(NC(=O)N=c3[nH]c4ccccc4[nH]3)c2)cc1S(=O)(=O)N[C@H](CC(=O)O)c1ccccc1 [Example 4.88]
224 °C (dec.) | COc1ccc(-c2cccc(NC(=O)NCc3cccnc3)c2)cc1S(=O)(=O)N[C@H](CC(=O)O)c1ccccc1 [Example 4.89]
111 °C (dec.) | COc1ccc(-c2cccc(NC(=O)NCc3ccc(C(F)(F)F)cc3)c2)cc1S(=O)(=O)N[C@H](CC(=O)O)c1ccccc1 [Example 4.90]
189 °C | O=C(O)C[C@@H](NS(=O)(=O)c1cccc(-c2cccc(NC(=O)N=c3[nH]c4ccccc4[nH]3)c2)c1)c1ccccc1 [Example 4.91]
126 °C | O=C(O)C[C@@H](NS(=O)(=O)c1cccc(-c2cccc(NC(=O)NCc3cccnc3)c2)c1)c1ccccc1 [Example 4.92]
112 °C | C[C@@H](NS(=O)(=O)c1cccc(-c2cccc(NC(=O)NCC(F)(F)C(F)(F)F)c2)c1)C(=O)O [Example 4.93]
152 °C | CCCCNC(=O)Nc1cccc(-c2cccc(S(=O)(=O)N[C@H](CC(=O)O)c3ccccc3)c2)c1 [Example 4.94]
186 °C | O=C(O)C[C@@H](NS(=O)(=O)c1cccc(-c2cccc(NC(=O)NCc3ccc(C(F)(F)F)cc3)c2)c1)c1ccccc1 [Example 4.95]
156 °C | CCCCNC(=O)Nc1cccc(-c2ccc(OC)c(S(=O)(=O)N[C@@H](CC(=O)O)c3ccccc3)c2)c1 [Example 4.96]
162 °C | COc1ccc(-c2cccc(NC(=O)NCc3ccc(F)cc3)c2)cc1S(=O)(=O)N[C@@H](CC(=O)O)c1ccccc1 [Example 4.97]
116 °C | CCCNC(=O)Nc1ccc(-c2ccc(OC)c(S(=O)(=O)NC(CC(=O)O)c3ccccc3)c2)cc1 (stereo not shown) [Example 4.98]
